Columns and labels:
HuTu 80 = assay: MTT cell viability test, HuTu 80; format: cell-based, human; details: Homo sapiens, HuTu80; incubation time 24 h
Method: (§1) Human cell cultures of tumor origin—HeLa (cervical tumor), HuTu 80 (human duodenal adenocarcinoma), ChangLiver (human liver HeLa-like line), and normal cell line WI38, VA 13 subline 2RA is a diploid human cell strain composed of fibroblasts derived from healthy lung tissue provided by The Gamaleya National Center for Epidemiology and Microbiology, as well as the Institute of Cytology of the Russian Academy of Sciences. They were grown in a nutrient medium DMEM (PanEco, Moscow, Russia) and MEM (PanEco, Moscow, Russia), containing fetal bovine serum (10% by volume) (ThermoFisher Scientific, Paisley, UK), Glutamax (2 mM) (Gibco, Scotland, UK), and penicillin-streptomycin (1% by volume) (PanEco, Moscow, Russia). The cultivation was carried out at 37 °C in a humidified CO2 atmosphere (5%).
(§2) Cell viability was determined by the MTT test. Cells were seeded in a 96-well plate in the amount of 1 × 10^4 cells/200 µL of complete nutrient medium and cultured at 37 °C in CO2 (5%). After 24 h of incubation, various concentrations of test compounds in the range of 0.1 to 100 μM were added to the cell cultures, and then the cells were cultured under the same conditions for 24 and 72 h. For each concentration, the experiment was carried out in triplicate.
(§3) All compounds were dissolved in DMSO and then diluted with the medium to the required concentration. […] The DMSO was also added to the control wells in a volume of 1%. After the incubation time, MTT (3-(4,5-dimethylthiazol-2-yl)-2,5-diphenyltetrazolium bromide, 5 mg/mL) was added to each well, and plates were additionally incubated for 2 h (until the characteristic color appeared).
(§4) Using a plate analyzer (Cytation3, BioTech Instruments Inc., Winooski, VT, USA), the optical density was determined at 530 nm.
(§5) The IC50 parameter was calculated using the AAT Bioquest program.
(§6) The selectivity index (SI) is calculated as the ratio between the IC50 for normal cells and the IC50 for cancer cells.

M-HeLa = assay: MTT cell viability test, M-HeLa; format: cell-based, human; details: Homo sapiens, M-HeLa; incubation time 24 h
Method: as §1, §2, §3, §4, §5, §6

Chang Liver = assay: MTT cell viability test, Chang liver; format: cell-based; details: Homo sapiens, incubation time 24 h
Method: as §1, §2, §3, §4, §5

Micrococcus luteus B-109 = assay: Agar-well diffusion, bactericidal activity; format: cell-based
Text: (§7) Plant pathogenic bacterial strains Micrococcus luteus B-109, Pectobacterium atrosepticum 1043, Pectobacterium carotovorum subsp. carotovorum MI, Pseudomonas fluorescens EL-2.1, and Xanthomonas campestris B-610 and the fungal strain Fusarium oxysporum IBPPM 543 were from the Collection of Rhizosphere Microorganisms, IBPPM RAS (WFCC no. 975, WDCM no. 1021) (CM IBPPM, http://collection.ibppm.ru). The pathogenic fungus Phytophthora cactorum VKM F-985, provided by the All-Russian Collection of Microorganisms (VKM) and deposited at the A.E. Favorsky Irkutsk Institute of Chemistry, SB RAS, was also used as a test organism. Bacteria M. luteus, P. carotovorum subsp. carotovorum, P. atrosepticum, and P. fluorescens were grown in a meat–peptone medium (BP), and X. campestris was grown in the medium with glucose, yeast extract, and calcium carbonate (GYCa). Solid media contained Bacto agar (18 g/L); pH was adjusted to 7.2–7.4. All bacterial cultures were grown at 28 °C. The mycelial cultures of F. oxysporum and P. cactorum were grown on a glucose–peptone–yeast (GPY) nutrient medium at 27 °C. For inoculum preparation, both fungal strains were initially grown on the agar GPY in Petri dishes and then transferred into the seed medium by punching out 5 mm of the agar plate culture with a self-designed cutter.
(§8) The antibacterial and antifungal activities of the compounds were explored using the agar-well diffusion method and the technique of mycelial radial growth inhibition. The method of diffusion in agar (measuring the diameter of growth inhibition zones) was used to determine the bactericidal activity. The 6-mm wells were made in agar medium (GYCa for Xanthomonas campestris or BP for other bacteria). Bacterial suspensions were distributed over the agar surface, and the tested compound’s solution (150 μL) was added to each well. The width of growth inhibition zones around the wells was determined after incubation for 36–40 h.

[1] = test system: Pectobacterium atrosepticum 1043; assay: Agar-well diffusion, bactericidal activity; format: cell-based
Text: as §7, §8

[2] = test system: Pseudomonas fluorescens EL-2.1; assay: Agar-well diffusion, bactericidal activity; format: cell-based
Text: as §7, §8

[3] = test system: Pectobacterium carotovorum subsp. carotovorum MI; assay: Agar-well diffusion, bactericidal activity; format: cell-based
Text: as §7, §8

[4] = test system: Xanthomonas campestris B-610; assay: Agar-well diffusion, bactericidal activity; format: cell-based
Method: Bacteria M. luteus, P. carotovorum subsp. carotovorum, P. atrosepticum, and P. fluorescens were grown in a meat–peptone medium (BP), and X. campestris was grown in the medium with glucose, yeast extract, and calcium carbonate (GYCa). Solid media contained Bacto agar (18 g/L); pH was adjusted to 7.2–7.4. […] For inoculum preparation, both fungal strains were initially grown on the agar GPY in Petri dishes and then transferred into the seed medium by punching out 5 mm of the agar plate culture with a self-designed cutter.
as §8

| Compound | IC50 (HuTu 80) [µM] | melting point [°C] | IC50 (M-HeLa) [µM] | IC50 (Chang Liver) [µM] | other results |
| --- | --- | --- | --- | --- | --- |
| O=C1C(=O)N(Cc2c(F)cccc2F)c2ccc(F)cc21 [Compound 3c, 1-(2,6-Difluorobenzyl)-5-fluoroindoline-2,3-dione] | 41.2 ± 2.7 | 131 to 132 | 65.7 ± 5.9 | 95.5 ± 8 | – |
| O=C1C(=O)N(Cc2cccc(C(F)(F)F)c2)c2ccc(F)cc21 [Compound 3e, 5-Fluoro-1-(3-(trifluoromethyl)benzyl)indoline-2,3-dione] | – | 170 to 171 | – | – | – |
| O=C1C(=O)N(Cc2c(F)c(F)c(F)c(F)c2F)c2ccc(F)cc21 [Compound 3f, 5-Fluoro-1-((perfluorophenyl)methyl)indoline-2,3-dione] | 92 ± 6.4 | 112 to 113 | 100 ± 7.4 | > 100 | – |
| N=C(NCCCCCCNC(=N)NC(=N)Nc1ccc(Cl)cc1)NC(=N)Nc1ccc(Cl)cc1 [Chlorohexidin, chlorohexidin, reference compound] | – | – | – | – | width of the inhibition zone (mm), M. luteus (Micrococcus luteus B-109; 500 μg/mL): 5 mm; width of the inhibition zone (mm), P. atrosepticum ([1]; 500 μg/mL): 4 mm; width of the inhibition zone (mm), Ps. fluorescens ([2]; 500 μg/mL): 4 mm; width of the inhibition zone (mm), P. carotovorum subsp. carotovorum ([3]; 500 μg/mL): 5 mm; width of the inhibition zone (mm), X. campestris ([4]; 500 μg/mL): 5 mm |
| Cc1ccc2c(c1)C(=O)C(=O)N2Cc1cccc(C(F)(F)F)c1 [Compound 4e, 5-Methyl-1-(3-(trifluoromethyl)benzyl)indoline-2,3-dione] | 53.2 ± 3.9 | 155 to 156 | 94 ± 7.5 | > 100 | – |
| [Na+].[O-]Cl [sodium hypochlorite, reference compound] | – | – | – | – | width of the inhibition zone (mm), M. luteus (Micrococcus luteus B-109; 1000 μg/mL): 2.5 mm; width of the inhibition zone (mm), P. atrosepticum ([1]; 1000 μg/mL): 4 mm; width of the inhibition zone (mm), Ps. fluorescens ([2]; 1000 μg/mL): 4 mm; width of the inhibition zone (mm), P. carotovorum subsp. carotovorum ([3]; 1000 μg/mL): 3 mm; width of the inhibition zone (mm), X. campestris ([4]; 1000 μg/mL): 4 mm |
| CC(C)(C)c1ccc(CN2C(=O)C(=O)c3cc(F)ccc32)cc1 [Compound 4c, 1-(4-(tert-Butyl)benzyl)-5-fluoroindoline-2,3-dione] | 43 ± 3 | 123 to 124 | > 100 | 92.1 ± 7.4 | – |
| O=C1C(=O)N(Cc2ccc(Br)cc2F)c2ccccc21 [Compound 8b] | 59.4 ± 4.2 | – | 40 ± 2.8 | 100 ± 8.4 | – |

— paper PMC10607100, “Anticancer and Antiphytopathogenic Activity of Fluorinated Isatins and Their Water-Soluble Hydrazone Derivatives” (International Journal of Molecular Sciences, 2023)
